According to patent US20240210412A1, “SULFONYL-TRIAZOLE COMPOUNDS USEFUL AS LIGANDS AND INHIBITORS OF PROSTAGLANDIN REDUCTASE 2” (University of Virginia Patent Foundation, priority 2021, published 2024):

What was measured:
Assay in all cases: SILAC LC-MS ABPP
Assay type in all cases: cell-based
Details in all cases: 25 μM 2 h, live DM93 cells
O00232 = molecular target: T1, O00232 (Homo sapiens, UniProt O00232)
T1 construct: endogenous in cells; host or cells: DM93
Summary of the method: (§1)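 Ligand engagement is measured as loss of HHS-475 probe labelling at specific tyrosines. SILAC DM93 melanoma cells were treated in situ (25 μM ligand vs DMSO, 2 h, 37 °C; then 100 μM probe, 2 h), and modified peptides were quantified by high-resolution LC-MS/MS after desthiobiotin tagging and avidin capture.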

O43776 = molecular target: T2, O43776 (Homo sapiens, UniProt O43776)
T2 construct: endogenous in cells; host or cells: DM93
Summary of the method: as §1

P23588 = molecular target: T3, P23588 (Homo sapiens, UniProt P23588)
T3 construct: Probe-modified proteins from the soluble fraction were conjugated to a desthiobiotin-azide tag; endogenous in cells; host or cells: DM93 (SILAC)
Summary of the method: as §1

P24666 = molecular target: T4, P24666 (Homo sapiens, UniProt P24666)
T4 construct: endogenous in cells; host or cells: DM93 (SILAC)
Summary of the method: as §1

P39019 = molecular target: T5, P39019 (Homo sapiens, UniProt P39019)
T5 construct: Probe-modified proteins from the soluble fraction were conjugated to a desthiobiotin-azide tag; endogenous in cells; host or cells: DM93 (SILAC)
Summary of the method: as §1

P50502 = molecular target: T6, P50502 (Homo sapiens, UniProt P50502)
T6 construct: endogenous in cells; host or cells: DM93 cells (SILAC)
Summary of the method: as §1

P62847 = molecular target: T7, P62847 (Homo sapiens, UniProt P62847)
T7 construct: performing SuTEx compound screening directly in cells; endogenous in cells; host or cells: DM93 cells (SILAC)
Summary of the method: as §1

Q9NVE7 = molecular target: T8, Q9NVE7 (Homo sapiens, UniProt Q9NVE7)
T8 construct: endogenous in cells; host or cells: DM93 cells (SILAC)
Summary of the method: as §1

Q9UI12 = molecular target: T9, Q9UI12 (Homo sapiens, UniProt Q9UI12)
T9 construct: endogenous in cells; host or cells: DM93 cells (SILAC)
Summary of the method: as §1

P25685 = molecular target: T10, P25685 (Homo sapiens, UniProt P25685)
T10 construct: endogenous in cells; host or cells: DM93 (SILAC)
Summary of the method: as §1

Q13057 = molecular target: T11, Q13057 (Homo sapiens, UniProt Q13057)
T11 construct: performing SuTEx compound screening directly in cells; endogenous in cells; host or cells: DM93 cells (SILAC), soluble fraction
Summary of the method: as §1

Q92889 = molecular target: T12, Q92889 (Homo sapiens, UniProt Q92889)
T12 construct: endogenous in cells; host or cells: DM93 cells (SILAC), live-cell treatment
Summary of the method: as §1

Q9NW64 = molecular target: T13, Q9NW64 (Homo sapiens, UniProt Q9NW64)
T13 construct: endogenous in cells; host or cells: DM93 cells (SILAC)
Summary of the method: as §1

Q9UQ35 = molecular target: T14, Q9UQ35 (Homo sapiens, UniProt Q9UQ35)
T14 construct: endogenous in cells; host or cells: DM93 cells (SILAC)
Summary of the method: as §1

O95260 = molecular target: T15, O95260 (Homo sapiens, UniProt O95260)
T15 construct: endogenous in cells; host or cells: DM93 cells (SILAC)
Summary of the method: as §1

Q14914 = molecular target: T16, Q14914 (Homo sapiens, UniProt Q14914)
T16 construct: performing SuTEx compound screening directly in cells; endogenous in cells; host or cells: DM93 cells (SILAC), soluble fraction
Summary of the method: as §1

Q14980 = molecular target: T17, Q14980 (Homo sapiens, UniProt Q14980)
T17 construct: performing SuTEx compound screening directly in cells; endogenous in cells; host or cells: DM93 cells (SILAC), soluble fraction
Summary of the method: as §1

Q13535 = molecular target: T18, Q13535 (Homo sapiens, UniProt Q13535)
T18 construct: performing SuTEx compound screening directly in cells; endogenous in cells; host or cells: DM93 cells (SILAC), soluble fraction
Summary of the method: as §1

T1 sequence (O00232 whole entry): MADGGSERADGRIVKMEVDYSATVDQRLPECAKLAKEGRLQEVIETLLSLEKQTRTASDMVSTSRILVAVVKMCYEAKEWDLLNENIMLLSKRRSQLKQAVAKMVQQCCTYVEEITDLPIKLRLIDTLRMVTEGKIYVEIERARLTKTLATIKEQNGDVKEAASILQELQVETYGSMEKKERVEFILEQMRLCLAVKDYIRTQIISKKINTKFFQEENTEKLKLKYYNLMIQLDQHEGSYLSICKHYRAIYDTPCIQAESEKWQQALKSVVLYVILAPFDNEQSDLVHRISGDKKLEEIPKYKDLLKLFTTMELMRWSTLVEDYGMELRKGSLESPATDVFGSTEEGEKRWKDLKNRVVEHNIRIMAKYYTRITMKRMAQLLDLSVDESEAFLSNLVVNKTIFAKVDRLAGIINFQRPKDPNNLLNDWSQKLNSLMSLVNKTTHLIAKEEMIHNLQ
T17 sequence (Q14980 whole entry): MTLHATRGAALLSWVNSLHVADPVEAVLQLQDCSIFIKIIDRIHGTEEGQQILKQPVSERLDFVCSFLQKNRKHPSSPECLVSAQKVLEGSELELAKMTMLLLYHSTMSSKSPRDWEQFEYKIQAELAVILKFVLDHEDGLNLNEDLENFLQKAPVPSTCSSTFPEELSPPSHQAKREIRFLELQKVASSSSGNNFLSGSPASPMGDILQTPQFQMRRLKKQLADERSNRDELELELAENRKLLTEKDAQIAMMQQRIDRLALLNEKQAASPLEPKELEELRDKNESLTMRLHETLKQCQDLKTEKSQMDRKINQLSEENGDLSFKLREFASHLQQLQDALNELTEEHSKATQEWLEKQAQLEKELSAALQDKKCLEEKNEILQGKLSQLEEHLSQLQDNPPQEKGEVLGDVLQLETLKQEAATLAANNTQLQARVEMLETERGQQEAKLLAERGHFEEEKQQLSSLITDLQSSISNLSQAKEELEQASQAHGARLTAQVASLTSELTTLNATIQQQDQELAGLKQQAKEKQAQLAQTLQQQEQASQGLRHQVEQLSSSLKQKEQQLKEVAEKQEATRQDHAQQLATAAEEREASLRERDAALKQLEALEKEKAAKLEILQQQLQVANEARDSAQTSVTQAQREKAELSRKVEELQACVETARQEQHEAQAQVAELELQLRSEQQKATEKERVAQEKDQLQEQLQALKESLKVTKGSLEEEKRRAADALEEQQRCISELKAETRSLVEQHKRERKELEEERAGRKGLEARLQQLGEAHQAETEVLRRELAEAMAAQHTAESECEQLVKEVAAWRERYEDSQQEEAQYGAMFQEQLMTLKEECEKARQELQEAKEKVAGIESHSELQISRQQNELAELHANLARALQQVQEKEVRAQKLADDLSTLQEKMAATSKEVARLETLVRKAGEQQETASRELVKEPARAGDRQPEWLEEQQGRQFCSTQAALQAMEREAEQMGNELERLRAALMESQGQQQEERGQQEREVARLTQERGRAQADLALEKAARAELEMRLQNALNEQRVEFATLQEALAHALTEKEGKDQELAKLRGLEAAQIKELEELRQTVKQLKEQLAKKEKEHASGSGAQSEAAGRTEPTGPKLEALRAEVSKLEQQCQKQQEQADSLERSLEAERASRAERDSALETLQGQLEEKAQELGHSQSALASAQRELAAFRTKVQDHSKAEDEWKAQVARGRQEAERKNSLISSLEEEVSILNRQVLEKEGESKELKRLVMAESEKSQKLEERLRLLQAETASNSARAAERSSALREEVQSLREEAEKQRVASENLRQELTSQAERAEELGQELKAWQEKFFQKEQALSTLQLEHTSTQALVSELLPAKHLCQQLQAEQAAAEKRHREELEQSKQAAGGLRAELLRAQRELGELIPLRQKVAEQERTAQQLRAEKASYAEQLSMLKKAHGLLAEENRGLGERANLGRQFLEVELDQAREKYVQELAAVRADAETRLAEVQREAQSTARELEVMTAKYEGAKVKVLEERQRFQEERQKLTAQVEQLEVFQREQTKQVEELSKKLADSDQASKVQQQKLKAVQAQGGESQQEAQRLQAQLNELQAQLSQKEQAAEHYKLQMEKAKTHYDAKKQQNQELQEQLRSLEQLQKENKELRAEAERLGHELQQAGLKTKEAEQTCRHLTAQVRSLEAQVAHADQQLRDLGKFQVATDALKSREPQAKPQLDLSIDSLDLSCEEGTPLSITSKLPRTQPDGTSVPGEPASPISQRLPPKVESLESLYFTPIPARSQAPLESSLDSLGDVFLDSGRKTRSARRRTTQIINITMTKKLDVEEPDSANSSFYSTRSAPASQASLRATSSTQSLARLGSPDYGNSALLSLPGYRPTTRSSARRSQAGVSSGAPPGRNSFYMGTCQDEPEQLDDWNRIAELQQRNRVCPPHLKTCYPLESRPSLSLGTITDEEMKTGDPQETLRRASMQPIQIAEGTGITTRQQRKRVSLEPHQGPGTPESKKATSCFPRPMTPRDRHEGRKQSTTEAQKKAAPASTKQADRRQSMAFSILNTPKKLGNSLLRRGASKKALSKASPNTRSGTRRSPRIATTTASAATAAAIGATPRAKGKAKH
T2 sequence (O43776 whole entry): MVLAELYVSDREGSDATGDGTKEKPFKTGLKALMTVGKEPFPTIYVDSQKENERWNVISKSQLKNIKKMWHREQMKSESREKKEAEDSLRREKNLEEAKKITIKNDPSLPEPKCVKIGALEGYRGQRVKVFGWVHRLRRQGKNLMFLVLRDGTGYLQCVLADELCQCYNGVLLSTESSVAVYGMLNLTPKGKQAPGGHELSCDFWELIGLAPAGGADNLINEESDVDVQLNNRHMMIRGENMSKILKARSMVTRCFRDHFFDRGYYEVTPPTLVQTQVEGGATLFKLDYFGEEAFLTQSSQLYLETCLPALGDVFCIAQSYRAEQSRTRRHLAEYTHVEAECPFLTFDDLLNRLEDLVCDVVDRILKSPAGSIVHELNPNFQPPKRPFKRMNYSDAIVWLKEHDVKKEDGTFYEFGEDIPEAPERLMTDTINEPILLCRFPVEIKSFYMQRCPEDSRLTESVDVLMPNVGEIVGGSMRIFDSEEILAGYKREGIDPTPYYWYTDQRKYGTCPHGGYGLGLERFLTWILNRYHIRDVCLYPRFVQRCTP
T8 sequence (Q9NVE7 whole entry): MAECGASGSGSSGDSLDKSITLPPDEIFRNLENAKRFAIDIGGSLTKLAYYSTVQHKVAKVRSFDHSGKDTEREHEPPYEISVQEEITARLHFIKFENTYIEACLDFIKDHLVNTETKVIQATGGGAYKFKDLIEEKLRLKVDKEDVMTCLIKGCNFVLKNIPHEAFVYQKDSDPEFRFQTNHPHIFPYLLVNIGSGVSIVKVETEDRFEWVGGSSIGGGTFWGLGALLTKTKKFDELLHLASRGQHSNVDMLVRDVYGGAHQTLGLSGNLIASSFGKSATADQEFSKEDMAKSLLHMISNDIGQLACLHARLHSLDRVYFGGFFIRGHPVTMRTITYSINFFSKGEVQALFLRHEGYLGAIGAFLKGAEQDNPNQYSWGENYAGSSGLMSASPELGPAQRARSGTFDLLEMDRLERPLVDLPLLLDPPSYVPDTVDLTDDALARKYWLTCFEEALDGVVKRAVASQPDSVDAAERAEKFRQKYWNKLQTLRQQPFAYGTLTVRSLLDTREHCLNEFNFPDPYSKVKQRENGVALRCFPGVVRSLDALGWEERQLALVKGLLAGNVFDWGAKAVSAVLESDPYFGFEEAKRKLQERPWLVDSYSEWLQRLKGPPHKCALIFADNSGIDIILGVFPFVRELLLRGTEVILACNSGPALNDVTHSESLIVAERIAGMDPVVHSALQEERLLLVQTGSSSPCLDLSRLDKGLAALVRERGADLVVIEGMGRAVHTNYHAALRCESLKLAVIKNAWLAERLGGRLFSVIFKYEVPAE
T11 sequence (Q13057 whole entry): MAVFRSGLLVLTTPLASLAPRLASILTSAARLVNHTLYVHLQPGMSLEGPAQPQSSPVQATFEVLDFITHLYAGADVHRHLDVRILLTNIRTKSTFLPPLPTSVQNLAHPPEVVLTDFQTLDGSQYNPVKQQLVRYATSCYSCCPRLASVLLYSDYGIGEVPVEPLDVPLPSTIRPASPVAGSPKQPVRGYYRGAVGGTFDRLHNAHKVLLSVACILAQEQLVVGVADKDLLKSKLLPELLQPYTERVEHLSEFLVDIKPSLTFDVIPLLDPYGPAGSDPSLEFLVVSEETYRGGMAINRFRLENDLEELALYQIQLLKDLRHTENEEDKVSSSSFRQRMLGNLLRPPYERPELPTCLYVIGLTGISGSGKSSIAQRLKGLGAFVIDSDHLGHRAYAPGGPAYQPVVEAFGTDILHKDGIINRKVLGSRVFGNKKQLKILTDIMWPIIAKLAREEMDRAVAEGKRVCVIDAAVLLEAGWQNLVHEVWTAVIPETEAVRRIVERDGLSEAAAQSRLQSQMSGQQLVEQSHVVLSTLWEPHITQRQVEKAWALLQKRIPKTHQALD
T6 sequence (P50502 whole entry): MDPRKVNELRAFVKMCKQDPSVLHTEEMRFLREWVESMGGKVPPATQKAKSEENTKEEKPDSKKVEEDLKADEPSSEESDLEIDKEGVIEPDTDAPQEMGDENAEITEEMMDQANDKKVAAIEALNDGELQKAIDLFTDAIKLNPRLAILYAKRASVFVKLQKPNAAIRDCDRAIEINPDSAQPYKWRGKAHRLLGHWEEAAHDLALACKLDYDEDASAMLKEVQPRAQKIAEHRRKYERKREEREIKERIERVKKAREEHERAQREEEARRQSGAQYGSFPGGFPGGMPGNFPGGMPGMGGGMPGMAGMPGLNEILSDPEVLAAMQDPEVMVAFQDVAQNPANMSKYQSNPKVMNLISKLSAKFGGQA
T4 sequence (P24666 whole entry): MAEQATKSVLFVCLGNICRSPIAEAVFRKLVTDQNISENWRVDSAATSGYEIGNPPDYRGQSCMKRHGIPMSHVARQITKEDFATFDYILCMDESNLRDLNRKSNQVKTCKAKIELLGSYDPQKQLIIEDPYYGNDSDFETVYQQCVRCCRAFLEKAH

O=C(NC1CC1)c1ccc(S(=O)(=O)n2cncn2)cc1 [HHS-0101, 4-((1H-1,2,4-triazol-1-yl)sulfonyl)-N-cyclopropylbenzamide]
liganded tyrosine site 20 (O00232): HHS0101.Y|HHS0301.Y|HHS0401.Y|HHS0701.Y (tyrosine sites that showed >80% reductions (SR >5) in probe labeling in cells treated with compounds (liganded sites))
liganded tyrosine site 45 (O43776): HHS0101.Y (tyrosine sites that showed >80% reductions (SR >5) in probe labeling in cells treated with compounds (liganded sites))
liganded tyrosine site 258 (P23588): HHS0101.Y (tyrosine sites that showed >80% reductions (SR >5) in probe labeling in cells treated with compounds (liganded sites))

O=C(NCC1CC1)c1ccc(S(=O)(=O)n2cncn2)cc1 [HHS-0201, 4-((1H-1,2,4-triazol-1-yl)sulfonyl)-N-(cyclopropylmethyl)benzamide]
liganded tyrosine site 88 (P24666): HHS0201.Y|HHS0401.Y|HHS0701.Y (tyrosine sites that showed >80% reductions (SR >5) in probe labeling in cells treated with compounds (liganded sites))
liganded tyrosine site 54 (P39019): HHS0201.Y (tyrosine sites that showed >80% reductions (SR >5) in probe labeling in cells treated with compounds (liganded sites))
liganded tyrosine site 213 (P50502): HHS0201.Y (tyrosine sites that showed >80% reductions (SR >5) in probe labeling in cells treated with compounds (liganded sites))
liganded tyrosine site 81 (P62847): HHS0201.Y (tyrosine sites that showed >80% reductions (SR >5) in probe labeling in cells treated with compounds (liganded sites))
liganded tyrosine site 338 (Q9NVE7): HHS0201.Y|HHS0401.Y (tyrosine sites that showed >80% reductions (SR >5) in probe labeling in cells treated with compounds (liganded sites))
liganded tyrosine site 163 (Q9UI12): HHS0201.Y|HHS0301.Y (tyrosine sites that showed >80% reductions (SR >5) in probe labeling in cells treated with compounds (liganded sites))

O=C(NC1CCCCC1)c1ccc(S(=O)(=O)n2cncn2)cc1 [HHS-0301, 4-((1H-1,2,4-triazol-1-yl)sulfonyl)-N-cyclohexylbenzamide]
liganded tyrosine site 52 (P25685): HHS0301.Y (tyrosine sites that showed >80% reductions (SR >5) in probe labeling in cells treated with compounds (liganded sites))
liganded tyrosine site 126 (Q13057): HHS0301.Y (tyrosine sites that showed >80% reductions (SR >5) in probe labeling in cells treated with compounds (liganded sites))
liganded tyrosine site 344 (Q92889): HHS0301.Y|HHS0401.Y (tyrosine sites that showed >80% reductions (SR >5) in probe labeling in cells treated with compounds (liganded sites))
liganded tyrosine site 116 (Q9NW64): HHS0301.Y (tyrosine sites that showed >80% reductions (SR >5) in probe labeling in cells treated with compounds (liganded sites))
liganded tyrosine site 2390 (Q9UQ35): HHS0301.Y (tyrosine sites that showed >80% reductions (SR >5) in probe labeling in cells treated with compounds (liganded sites))

O=C(NCc1ccccc1)c1ccc(S(=O)(=O)n2cncn2)cc1 [HHS-0401, 4-((1H-1,2,4-triazol-1-yl)sulfonyl)-N-benzylbenzamide]
liganded tyrosine site 63 (O95260): HHS0401.Y|HHS0701.Y (tyrosine sites that showed >80% reductions (SR >5) in probe labeling in cells treated with compounds (liganded sites))
liganded tyrosine site 262 (Q14914): HHS0401.Y (tyrosine sites that showed >80% reductions (SR >5) in probe labeling in cells treated with compounds (liganded sites))
liganded tyrosine site 1836 (Q14980): HHS0401.Y (tyrosine sites that showed >80% reductions (SR >5) in probe labeling in cells treated with compounds (liganded sites))

O=C(c1ccc(S(=O)(=O)n2cncn2)cc1)N1CCC(c2ccccc2)CC1 [HHS-0701, (4-((1H-1,2,4-triazol-1-yl)sulfonyl)phenyl)(4-phenylpiperidin-1-yl)methanone]
liganded tyrosine site 2067 (Q13535): HHS0701.Y (tyrosine sites that showed >80% reductions (SR >5) in probe labeling in cells treated with compounds (liganded sites))
